# Experimental data as given in patent publication US7232805B2, “Cobalamin conjugates for anti-tumor therapy” (Inflabloc Pharmaceuticals, Inc., priority 2003, dated 2007).
# Key:
# MCF-7 cells = test: CellTiter-Glo Luminescent Cell Viability Assay, MCF-7 cells; format: cell-based, human; conditions: MCF-7, 96 hours, 100 μM down to 10 nM, FIG. 6a
# Excerpt: FIGS. 6a-6d depict the results of in vitro assays of the conjugate against four cell lines. FIG. 6A is a chart depicting the results of the conjugate against MCF-7 cells, cells derived from a human breast cancer cell line. FIG. 6B is a chart depicting the results of the conjugate against SK-BR-3 cells, cells derived from a human breast adenocarcinoma cell line. FIG. 6C is a chart depicting the results of the conjugate against HL-60 cells, cells derived from a human promyelocytic leukemia cell line. FIG. 6D is a chart depicting the results of the conjugate against SK-N-MC cells, cells derived from a human brain neuroblastoma (neuroepithelioma) cell line. […]
# (§1) After 96 hours, the effects of doxorubicin and B12-S-doxorubicin on cell viability were determined using an assay from Promega. The CellTiter-Glo™ Luminescent Cell Viability Assay quantitates the ATP present in a culture, which correlates with metabolically active cells. Luminescence, which is dependent on ATP concentration, was measured for each individual well on a Wallac MicroBeta® JET Liquid Scintillation and Luminescence Counter. The average luminescence value of the three wells containing medium alone was subtracted from the raw data values to give corrected values. […] The three corrected values for wells dosed with the same concentration of compound were averaged and the standard deviation calculated. […]
# [1] = tested on: MX-1 human breast carcinoma xenograft; test: tumor growth delay, MX-1 xenograft, single-cycle dosing (Example 3)
# Protocol: Test articles were administered on the day of pair matching, Day 1.
# The upper limit of acceptability is 20% weight loss.
# [2] = tested on: MX-1 human breast carcinoma xenograft; test: tumor growth delay, MX-1 xenograft, two-cycle dosing (Example 11)
# Protocol: The following procedure was used to investigate the tumor growth delay effects of the conjugate, particularly for the treatment of MX-1 human breast carcinoma xenograft in athymic mice using a two-cycle dosing regimen. Female nude Harlan mice are implanted subcutaneously with 1 mm^3 MX 1 solid tumor fragments in the flank. During the pre-dose phase of implantation and growth, tumors are initially monitored twice weekly, and then daily as the neoplasms approach the desired size of 80-120 mg. When the majority of tumors reached the targeted weight range (80-120 mg), mice are pair-matched into 5 treatment groups of 10 mice each. For purposes of this illustrationon the effect of 2-cycles of treatment, data from 3 groups are shown: no treatment, 3 mg/kg/day (days 1-5, 21-25) intravenous Doxorubicin and 24 mg/kg/day (days 1-5, 21-25) intravenous bioconjugate. Test article administration began on this day, referred to as Day 1. The tumor growth delay endpoint is reached when the tumor on the mouse reaches 1.5 gm weight estimated by the formula: Tumor weight (mg)=w^2×l/2×1 mg/mm^3, where w=width (mm) and l=length (mm) of the tumor. The median time to endpoint is calculated for each treatment group.
# SK-N-MC cells = test: CellTiter-Glo Luminescent Cell Viability Assay, SK-N-MC cells; format: cell-based, human; conditions: 96 hours, 100 μM down to 10 nM
# Excerpt: FIG. 8 is a chart depicting the results of an in vitro assay of the stable conjugate against SK-N-MC cells, cells derived from a human brain neuroblastoma (neuroepithelioma) cell line. The assay employed is the CellTiter-Glo™ Luminescent Cell Viability Assay from Promega Corporation, which is recognized in the art as being predictive of the effect of a compound on cell viability. FIG. 8 depicts the results of the assay conducted according to Example 9. The method described by Promega Corporation (Technical Bulletin No. 288) was followed with no exceptions.
# Doxorubicin and CobalaRubicin-200 stocks and stock solutions, prepared in 5% DMSO in water, were stored at −20° C. and protected from light. […]
# as §1, with “Percent cell viability was calculated by considering” for “The three corrected values for wells dosed with”, “untreated cells as 100% viable.” for “same concentration of compound were averaged and the standard deviation calculated.”
# [3] = 32 mg/kg/day x 5 days intravenous
# [4] = 32 mg/kg/day x 5 days intravenous, group of 10 mice
# [5] = lower dose than 24 mg/kg/day, data not shown
# [6] = two cycles of 24 mg/kg/day intravenous
# [7] = two cycles of 24 mg/kg/day intravenous, at 71 days
smiles,measurement,setting,value
"COc1cccc2c1C(=O)c1c(O)c3c(c(O)c1C2=O)C[C@@](O)(C(=O)CO)C[C@@H]3O[C@H]1C[C@H](NC(=O)OCc2ccc(NC(=O)[C@H](CCCCN)NC(=O)[C@H](Cc3ccccc3)NC(=O)CCCCCNC(=O)OC[C@H]3O[C@H](n4cnc5cc(C)c(C)cc54)[C@H](O)[C@@H]3OP(=O)(O)O[C@H](C)CNC(=O)CC[C@@]3(C)C4=C(C)C5=NC(=CC6=NC(=C(C)C7=N[C@@](C)([C@H](N4)[C@@H]3CC(N)=O)[C@@](C)(CC(N)=O)[C@@H]7CCC(N)=O)[C@@](C)(CC(N)=O)[C@@H]6CCC(N)=O)C(C)(C)[C@@H]5CCC(N)=O)cc2)[C@H](O)[C@H](C)O1 [conjugate 13, B12-5′-OCONH(CH2)5CO-Phe-Lys-PABC-Dox]",cell viability versus free doxorubicin,MCF-7 cells,same effectiveness as doxorubicin and is slightly less potent than doxorubicin
same,median time to endpoint (tumor 1.5 gm),[1]; [3],62.1 days
same,time to endpoint longer than control,[1]; [3],44.3 days
same,treatment or nontreatment related deaths,[1]; [3],no treatment or nontreatment related deaths
same,maximum body weight loss,"[1]; 32 mg/kg/day x 5 days intravenous, day 9",−8.4%
same,"long-term, tumor-free survivors",[1]; [4],4 mice
same,mice that developed complete regression,[1]; [4],6 mice
same,time to endpoint longer than the Doxorubicin active control,"[1]; 32 mg/kg/day x 5 days intravenous, Doxorubicin 3 mg/kg/day",22.6 days
same,toxicity,"[1]; 64 mg/kg/day x 5 days intravenous, group terminated on Day 4",severe toxicity
same,efficacy compared with the free drug (tumor size versus days),[1]; FIG. 9,much greater efficacy than the free drug
same,change in tumor size,"[1]; at about 2-4 weeks after administration, FIG. 9",substantial decrease in tumor size
same,additional toxicity (body weight) from increased amount of doxorubicin in the conjugate,"[1]; single-cycle study, FIG. 12a, 2.3-fold increase of doxorubicin",not associated with additional toxicity
same,efficacy versus free doxorubicin on a molar equivalent basis,[2]; [5],less efficacious than free doxorubicin
same,tumor growth versus non-treatment control,[2]; [5],delay in tumor growth was observed
same,time to endpoint longer than control mice,"[2]; two cycles of 24 mg/kg/day (days 1-5, 21-25) intravenous",44 days
same,maximum body weight loss,[2]; [6],10%
same,treatment or nontreatment related deaths,[2]; [6],no treatment or nontreatment related deaths
same,"long-term, tumor-free survivors",[2]; [7],7 of 10
same,mice that developed complete regression,[2]; [7],9 of 10
same,recovery from weight loss versus native doxorubicin,"[2]; two-cycle study, FIG. 12b, equivalent dose of doxorubicin in the conjugate 2-fold greater",tended recover from their weight loss sooner
same,weight loss,"[2]; two-cycle study, doxorubicin 3 mg/kg/day, bioconjugate 24 mg/kg/day",significant weight loss
same,reduction of tumor size and delay of tumor growth,"[2]; two-cycle treatment, study day 71, FIG. 11",extremely effective at reducing tumor size and delaying tumor growth
same,cell viability / cytotoxicity,SK-N-MC cells; FIG. 6d and FIG. 8,very efficacious
same,cell viability / cytotoxicity,"SK-N-MC cells; FIG. 6d and FIG. 8, listed as CobalaRubicin 200",same effectiveness as doxorubicin and is slightly less potent than doxorubicin
